Patent US5569742A (The Salk Institute for Biological Studies, priority 1994, dated 1996)
Positions of bridges follow the written chain, without caps; N, C: chain ends. Residues, ends and D or L forms follow the SMILES beside them.

What was measured:
[1] = biological target: T1, NPY Y1 receptor (Homo sapiens, UniProt P25929); experiment: Receptor binding assay, displacement of [125I]PYY from SK-N-MC cells
T1 construct: The human SK-N-MC cell line expresses the Y1 receptor subtype; endogenous in cells; host or cells: SK-N-MC human neuroblastoma cells (intact, plated cells)
T1 sequence (P25929 1-384): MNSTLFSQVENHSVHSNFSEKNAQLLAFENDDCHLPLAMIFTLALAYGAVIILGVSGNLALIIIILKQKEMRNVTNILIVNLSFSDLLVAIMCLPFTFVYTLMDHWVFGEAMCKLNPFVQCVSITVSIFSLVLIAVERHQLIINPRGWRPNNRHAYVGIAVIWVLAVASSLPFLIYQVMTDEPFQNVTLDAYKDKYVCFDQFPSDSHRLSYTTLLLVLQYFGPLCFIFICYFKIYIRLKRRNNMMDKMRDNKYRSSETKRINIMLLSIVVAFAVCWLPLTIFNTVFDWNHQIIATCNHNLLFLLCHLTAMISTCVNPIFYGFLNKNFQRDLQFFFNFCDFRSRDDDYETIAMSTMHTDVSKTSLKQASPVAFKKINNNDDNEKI
Procedure: (§1) Receptor binding assays are performed using the human neuroblastoma SK-N-MC cells Y1 receptors) and the SK-N-BE(2) cells (Y2 receptors). Cells are grown to confluence in […], trypsinized, and plated into 24 microwells plates (10^5 cells per well). Media for SK-N-MC cells is MEM Eagles (500 mL) buffer, containing L-glutamine (10 Ml, 200 mM, penicillin/streptomycin (5 Ml.10 000 mg/mL), nonessential amino acids (5 mL, 11 mg/mL), fetal calf serum (50 mL, 10%), and 500 μL of fungiyorl. Media for SK-N-BE(2) cells is DME-F12 (500 mL) buffer, containing L-glutamine (10 mL, 200 mM), penicillin/streptomycin (5 mL, 10 000 mg/mL), fetal calf serum (50 mL, 10%), and 500 μL of fungiyorl. After 1 day for the SK-N-BE(2) and 2 days for the SK-N-MC, the cells are grown to the appropriate density and are used for binding assays
(§2) Peptides to be tested are prealiquoted at 100 μg/Ml in 100 μL of solution in MILLI-Q™ water (Millipore, U.S.A.). Solutions of peptides in different concentrations (seven doses from 10^-6 to 10^-10 M) are prepared in binding buffer (0.30M sucrose, 10 mM HEPES, 0.1% BSA, and pH is adjusted to 7.4 with NaOH).

[2] = biological target: T2, NPY Y2 receptor (Homo sapiens, UniProt P49146); experiment: Receptor binding assay, displacement of [125I]PYY from SK-N-BE2 cells
T2 construct: Functional Y2 receptors have been identified on the cell line SK-N-BE2; endogenous in cells; host or cells: SK-N-BE(2) human neuroblastoma cells (intact, plated cells)
T2 sequence (P49146 1-381): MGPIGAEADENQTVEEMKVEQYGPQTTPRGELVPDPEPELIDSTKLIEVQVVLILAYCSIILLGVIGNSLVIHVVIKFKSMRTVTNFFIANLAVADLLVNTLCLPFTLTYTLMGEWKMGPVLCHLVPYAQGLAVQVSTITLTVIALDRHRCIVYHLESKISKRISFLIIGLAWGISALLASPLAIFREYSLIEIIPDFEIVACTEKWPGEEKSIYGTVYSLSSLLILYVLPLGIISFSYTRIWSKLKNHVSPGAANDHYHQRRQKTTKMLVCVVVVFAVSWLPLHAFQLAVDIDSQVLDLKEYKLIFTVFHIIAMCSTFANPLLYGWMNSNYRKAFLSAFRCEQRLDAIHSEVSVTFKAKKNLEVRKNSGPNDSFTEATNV
Procedure: as §1, §2

CC[C@H](C)[C@H](NC(=O)[C@H](Cc1ccc(O)cc1)NC(=O)[C@H](Cc1c[nH]cn1)NC(=O)[C@H](CCCNC(=N)N)NC(=O)[C@H](CC(C)C)NC(=O)[C@H](C)NC(=O)[C@H](CO)NC(=O)[C@@H]1CSSC[C@H](NC(=O)[C@H](CC(=O)O)NC(=O)[C@@H]2CCCN2C(=O)[C@H](CCCCN)NC(=O)[C@H](CO)NC(=O)[C@@H]2CCCN2C(=O)[C@@H](N)Cc2ccc(O)cc2)C(=O)N2CCC[C@H]2C(=O)NCC(=O)N1)C(=O)N[C@@H](CC(N)=O)C(=O)N[C@@H](CC(C)C)C(=O)N[C@H](C(=O)N[C@H](C(=O)N[C@@H](CCCNC(=N)N)C(=O)N1CCC[C@H]1C(=O)N[C@@H](CCCNC(=N)N)C(=O)N[C@@H](Cc1ccc(O)cc1)C(N)=O)[C@@H](C)O)[C@@H](C)CC [SEQ ID NO:8] (H-YPSKPDCPGCSALRHYINLITRPRY-NH2; disulfide 7-10)
Ki [1]: 32 nM | Ki [2]: > 1000 nM
